This note sets out measurements from patent US8093268B2, “Pharmaceutical compositions comprising 2-methoxy-5-(5-trifluoromethyl-tetrazol-1-yl-benzyl)-(2S-phenylpiperidin-3S-yl-)” (Glaxo Group Limited, priority 2007, dated 2012).

For one data set, the system named is Male CD rats. The experiment in a line: Rat MEST model (maximal electroshock seizure threshold). The data set is classed as in vivo. As to the method: This work was conducted in compliance with the Home Office Guidance on the operation of the Animals (Scientific Procedures) Act 1986 and GlaxoSmithKline ethical standards. Male CD rats (100-145 g) were supplied by Charles River, UK. Animals were group housed (6 animal per cage) with free access to food (Standard rodent chow; Harlan, UK) and water under a 12 h light/dark cycle (lights on at 0700 h). A period of at least one week between arrival at GSK and the study was allowed in all cases.
Animals were administered a test compound at the appropriate dose, route and pre-treatment time and returned to their home cage. Testing occurred in a separate room from that used for housing. Testing involved determining the threshold for tonic hindlimb extensor seizures using a Hugo Sachs Electronik stimulator which delivers a constant current of 0.3 second duration, 50 Hz, sinewave form, fully adjustable between 1 and 300 mA. Stimuli were delivered via corneal electrodes (Stean T O, Atkins A R, Heidbreder C A, Quinn L P, Trail B K, Upton N. (2005) Br J. Pharmacol. 144(5):628-35). Seizure threshold was determined using the ‘up and down’ method of Kimball et al. (1957)(Kimball A W, Burnett W T Jr, Doherty D G. (1957) Radiat Res. 7(1):1-12). The first animal tested in each group was stimulated with a current that might be expected to be close to the threshold for induction of a seizure. If a tonic seizure was not induced, then then next animal in the group received a stimulus 5 mA higher. If a tonic seizure was induced, then the next animal received a stimulus 5 mA lower. This is repeated for all animals within the control (vehicle) group. In the case of groups treated with a sodium channel blocker steps of 10 to 30 mA were used.
(§1) All doses were calculated as base. ENa9 and ENa13 were dosed via the subcutaneous (s.c.) route at 1 ml/kg in a 2% v/v DMSO/saline vehicle 30 minutes prior to test. ENa7 and ENa14 were dosed orally (p.o.) in a 1% w/v methylcellulose/water vehicle at 2 ml/kg, 60 minutes before test. Compound ENK6 was dosed with via the intraperitoneal (i.p.) route 60 minutes before the test or via the s.c. route 15 minutes before test. In both cases ENK6 was dissolved in saline.
Induction of seizure is measured as an all-or-nothing effect scored as either present (+) or absent (0) for each animal. The data for each treatment group were recorded as the number of +'s and 0's at each current level employed and this information was then used to calculate the CC50 value (current required for 50% of animals to show seizure behaviour)+standard error of the mean according to the method of Kimball et al. (1957). Drug effects were calculated as the % change in CC50. Significant differences between drug-treated animals and appropriate vehicle treated groups were assessed according to the methods of Litchfield and Wilcoxon (1949). The statistical significance of differences between sodium channel blocker alone or in combination with ENK6 was assessed using a Student's t test.
(In general: Protection in the maximal electroshock model is a classic sign of anticonvulsant action.)

A further data set deals with rats. The experiment in a line: FCA (Freunds Complete Adjuvant) model of inflammatory hypersensitivity to pain, weight bearing. Type of data set: in vivo, rat. As to the method:
• Naïve weight bearing readings were taken. The hypersensitivity to pain was measured using the Rat incapacitance tester (Linton instruments). This instrument is serviced once a year and should be regularly calibrated • All rats then received an intraplantar injection of 100 ul of FCA (Freund's complete adjuvant) into the left hind paw. The FCA was sonicated for 15 minutes prior to use. • Approximately 23 hrs after administration of the FCA, pre-dose weight bearing readings were taken. All animals were then ranked and randomised for dosing according to their FCA window (predose difference in grams−naïve difference in grams). […] Celebrex 10 mg/kg p.o. (positive control) as appropriate according to ranking and randomisation. • Animals were assessed in the weight bearing apparatus 1 hour post dose. • The study was blind and randomised by FCA window using the Latin square method. • % reversals were calculated by using the naïve, pre-dose and post dose values as follows: % Reversal=[(Pre-dose−Post-dose)/(Pre-dose−Naïve)]×100 • Graphs and ED50 were calculated where appropriate using Prism4. • Statistical analysis was carried out using ANOVA followed by calculating the least square means using the statistical package Statistica 6.1 • From the dose response curves the ED20 was determined for the combination study Results • Naïve weight bearing readings were taken. The hypersensitivity to pain was measured using the Rat incapacitance tester (Linton instruments). This instrument is serviced once a year and should be regularly calibrated • All rats then received an intraplantar injection of 100 ul of FCA (Freund's complete adjuvant) into the left hind paw. The FCA was sonicated for 15 minutes prior to use. • Approximately 23 hrs after administration of the FCA, pre-dose weight bearing readings were taken. All animals were then ranked and randomised for dosing according to their FCA window (predose difference in grams−naïve difference in grams). […] See table 5 for details of the groups • Animals were assessed in the weight bearing apparatus 1 hour post dose. • The study was blind and randomised by FCA window using the Latin square method. • % reversals were calculated by using the naïve, pre-dose and post dose values as follows: % Reversal=[(Pre-dose−Post-dose)/(Pre-dose−Naïve)]×100 • Statistical analysis was carried out using ANOVA followed by calculating the least square means using the statistical package Statistica 6.1 • ED50 and ED20 values and graphs were calculated using prism5 • Naïve weight bearing readings were taken. The hypersensitivity to pain was measured using the Rat incapacitance tester (Linton instruments). This instrument is serviced once a year and should be regularly calibrated • All rats then received an intraplantar injection of 100 ul of FCA (Freund's complete adjuvant) into the left hind paw. The FCA was sonicated for 15 minutes prior to use. • Approximately 23 hrs after administration of the FCA, pre-dose weight bearing readings were taken. All animals were then ranked and randomised for dosing according to their FCA window (predose difference in grams−naïve difference in grams). […] Graphs and ED50 were calculated where appropriate using Prism5 • Statistical analysis was carried out using ANOVA followed by calculating the least square means using the statistical package Statistica 6.1 Results

Data set [1] in a line: Blood and brain concentrations in satellite animals of the MEST studies. Type of data set: in vivo, rat. The following applies: 1 and 3 mg/kg s.c. with ENK6 30 mg/kg i.p. How it is done:
Satellite animals (n=3/group) received the same drugs or combinations of drugs as the test groups, and were culled at the appropriate time after dosing. Blood and brain samples were taken for analysis of the drug concentrations in these compartments.
as §1

The mark [2] stands for this setting: ED20 dose alone (ENa7 0.1 mg/kg p.o.; ENK6 0.08 mg/kg s.c.).
[3] abbreviates: FIG. 3, group marked by vertical arrow, ENK6 10 mg/kg sc 15 min ptt, Ena7 1 & 3 mg/kg po 60 min ptt.
Where [4] appears, read: 3 mg/kg s.c., 30 min before test, alone.

Some results are limits rather than exact numbers.

`COc1ccc(-n2nnnc2C(F)(F)F)cc1CN[C@H]1CCCN[C@H]1c1ccccc1.Cl.Cl` [ENK6, [2-Methoxy-5-(5-trifluoromethyl-tetrazol-1-yl)-benzyl]-([2S,3S]-2-phenyl-piperidin-3-yl)-amine dihydrochloride]: the “effect on seizure threshold” value was “no effect on seizure threshold” with Male CD rats (10 mg/kg s.c., 15 min before test, alone (first experiment)); “no effect on seizure threshold” in the data set on Male CD rats (30 mg/kg i.p., 60 min before test, alone); “no effect on seizure threshold” in the data set with Male CD rats (30 mg/kg s.c., 15 min before test, alone). The “effect on FCA induced hypersensitivity” value was “dose related reversal of the FCA induced hypersensitivity” in the data set with rats (0.1-3.0 mg/kg, alone, 1 hour post dose, dihydrochloride) and “no significant effect on the FCA induced hypersensitivity” in the data set on rats (setting [2]). Besides, the “ED20, reversal of FCA induced hypersensitivity” value in the data set on rats (s.c., alone (summary of results)) is listed as “approx 0.08 mg/kg”.

Take `Nc1nnc(-c2cccc(Cl)c2Cl)c(N)n1` [ENa7, 3,5-diamino-6-(2,3-dichlorophenyl)-1,2,4-triazine, reference compound]: the “effect on seizure threshold” value in the data set with Male CD rats (1 mg/kg p.o., 60 min before test, alone) is recorded as “little or no increase in seizure threshold”. Besides, in the data set on Male CD rats (setting [3]), the CC50 value result is “greater than 180 mA” and the “increase in CC50” value was over 780%. In the data set with rats (0.1-3.0 mg/kg, alone, 1 hour post dose), the “effect on FCA induced hypersensitivity” value is “dose related reversal of the FCA induced hypersensitivity”. Moreover, in the data set on rats (setting [2]), the “effect on FCA induced hypersensitivity” value is listed as “no significant effect on the FCA induced hypersensitivity”.

Regarding `Cl.NC(=O)[C@@H]1CC[C@H](c2ccc(OCc3ccccc3F)cc2)N1` [ENa9, (5R)-5-(4-{[(2-fluorophenyl)methyl]oxy}phenyl)-L-prolinamide hydrochloride], the “effect on seizure threshold” value in the data set on Male CD rats (setting [4]) is listed as “small, but significant increase in seizure threshold”. Moreover, in data set [1], the “blood or brain concentration in the presence of ENK6 versus alone” value is “No increase”.

For the molecule `CN1CC[C@]2(CC[C@H](c3ccc(OCc4ccccc4F)cc3)N2)C1=O.Cl` [ENa13, (2R,5R)-2-(4-{[(2-Fluorophenyl)methyl]oxy}phenyl)-7-methyl-1,7-diazaspiro[4,4]nonan-6-one hydrochloride], the “effect on seizure threshold” value with Male CD rats (setting [4]) is “robust and significant increase in seizure threshold”. Further, in data set [1], the “blood or brain concentration in the presence of ENK6 versus alone” value is on record as “No increase”.

Consider `Nc1nc(N)c(-c2cccc(Cl)c2Cl)c(CF)n1` [ENa15, R(−)-2,4-diamino-5-(2,3-dichlorophenyl)-6-fluoromethyl pyrimidine methanesulphonate], for which the “effect on seizure threshold” value with Male CD rats (0.3 mg/kg p.o., 60 min before test, alone) is “no increase in seizure threshold”. Moreover, in the data set with Male CD rats (1 mg/kg p.o. in the presence of ENK6 30 mg/kg s.c.), the “increase in CC50(mA)” value turned out to be 51%.
